Several values for one entry are separate records, joined by “and”; a condition that tells them apart may be missing. Identical values can stand only once. Like-named read-outs stand apart in the source and are kept apart here.
Columns and labels:
[1] = Identification of metabolites of ENT-03S in rat plasma and urine samples (UPLC-MS/MS); format: in vivo
Description: An equal number of rat urine (50 μL) were taken from different animals at various time points following administration of ENT-03S. For plasma samples, the Hamilton pooling method was used.
Study design: An equal number of rat urine (50 μL) samples were taken from different animals at various time points from study No.: PH-DMPK-ETR-21-001 following administration of ENT-03S. For plasma samples, the Hamilton pooling method was used.
The samples were then analysed using UPLC-MS/MS.
Compound dependent parameters were optimized by ENT-03S.

[2] = Subcutaneous injection into a human subject (local tolerability); format: in vivo
Description: […] The contents of the syringe were injected subcutaneously in the abdominal area of a human subject creating a visible swelling.

[3] = Plasma pharmacokinetics of aqueous ENT-03S solution without cyclodextrin after subcutaneous injection; format: in vivo, rat; conditions: 2 mg/ml, 10 mg/kg SC, male SD rats
Description: The benefits provided by the aminosterol-cyclodextrin formulation disclosed herein can be appreciated by comparing the pharmacokinetics of an aqueous solution of ENT-03S in the absence of cyclodextrin at a concentration of ENT-03S of 2 mg/ml at […].
The dose chosen was the maximum ENT-03S concentration that could be delivered to the rat without causing visible local tissue necrosis.
The experiment was conducted in male Sprague-Dawley rats following the same protocol as above. The formulation was administered subcutaneously at a dose of 10 mg/kg. The data obtained are shown below in Tables 19 and 20 and FIG. 35.

[4] = male, Sprague-Dawley, in vivo, sc, 10 mg/kg
Description: An equal volume of rat bile samples (50 μL) were taken from different animals at different time points following administration of ENT-03S. 50 μL of matrix was mixed with 200 μL of methanol (containing 0.1% formic acid), vortexed for 100 seconds and then centrifuged at 16,000 g for 10 minutes at 4° C. to precipitate proteins. 100 μL of the supernatant was transferred to a new tube and the supernatant diluted with 100 μt, pure water, mixed well and analyzed using UPLC-MS/MS.
The peak area percentages of parent drug and each metabolite were determined by semi-quantitative estimation using the extracted ion chromatogram peak areas of all detected drug-related material in the sample. Metabolites with percentage of peak area>10% are proposed as major metabolites of ENT-03S.
Bile samples were obtained from male rats at various time points following a 10 mg/kg dose of ENT-03S via subcutaneous administration in bile dicut cannulated male SD rats as detailed in Table 10. The samples were transferred on dry ice and stored at −80° C. prior to use
Study design: An equal volume of rat bile samples (50 μL) were taken from different animals at different time points following administration of ENT-03S in study No.: PII-DMPK-ETR-21-001. 50 μL of matrix was mixed with 200 μL of methanol (containing 0.1% formic acid), vortexed for 100 seconds and then centrifuged at 16,000 g for 10 minutes at 4° C. to precipitate proteins. 100 μL of the supernatant was transferred to a new tube and the supernatant diluted with 100 μL pure water, mixed well and analyzed using UPLC-MS/MS.
Sample preparation: For bile samples, an equal volume of samples (50 μL) are taken from different animals at various time points after the administration of each group of samples, and the same group of samples are mixed thoroughly.
Data Analysis: UPLC-MS/MS was used for sample analysis, and was conducted using a DionexUltiMate 3000/Vanquish UHPLC system. For mass spectrometry (MS), all analysis was carried out with a Q-Exactive instrument (Thermo Fisher). A full MS scan was used to trigger the data dependent acquisition (DDA) of MS/MS scan spectra. Compound dependent parameters were optimized by ENT-03S. DDA settings were used to trigger acquisition of MS^2 spectra for ions whose intensity is in top 5 of all, with exclusion of impurity ions (m/z 149.02332, m/z 279.15909, m/z 391.28429 and m/z 445.12003), after 3 occurrences for 10 s. Dynamic exclusion settings: automatic exclusion of the ions which have been taken.
Data Analysis: The analysis was carried out using a thermo Fisher Scientific Q Exactive instrument. Full MS scan was used to trigger the data dependent acquisition (DDA) of MS/MS scan spectra. Compound dependent parameters were optimized by ENT-03S. DDA settings were used to trigger acquisition of MS^2 spectra for ions whose intensity was in the top 5 of all, with exclusion of ions (m/z 149.02332, m/z 279 1 5909, m/z 391.28429 and m/z 445 12003), after 3 occurrences for 10 s. Data was acquired and processed using Xcalibur v4.1 software (Thermo Fisher Scientific) and Compound Discoverer 3.1 (Thermo Fisher Scientific) and Excel (Microsoft 2016).

[5] = Plasma pharmacokinetics of ENT-03S cyclodextrin formulation after subcutaneous injection; format: in vivo, rat; conditions: 20% beta-cyclodextrin formulation, 10 mg/kg SC, male SD rats, individual rats, 10 mg/kg
Description: In this example, ENT-03S was formulated with unmodified beta-cyclodextrin at a concentration of 25 mg/ml ENT-03, and 20% beta-cyclodextrin, pH 7.5, buffered with phosphate.
Male Sprague-Dawley rats were administered the ENT-03-cyclodextrin formulation subcutaneous at a dose of 10 mg/kg. Blood samples were drawn from the tail vein at various times, the concentrations of ENT-03 determined, and PK parameters determined.

[6] = 0. 1l of aqueous ENT-03S 2 mg/ml, pH 74, no cyclodextrin

C[C@H](CCC[C@H](C)C(=O)O)[C@H]1CCC2C3C(CC[C@@]21C)[C@@]1(C)CC[C@H](NCCCNCCCCNCCCN)C[C@@H]1C[C@H]3O (stereo partly drawn) [ENT-03S, (2S,6R)-6-((3S,5R,7R,10S,13R,17R)-3-((3-((4-((3-aminopropyl)amino)butyl)amino)propyl)amino)-7-hydroxy-10,13-dimethylhexadecahydro-1 H-cyclopenta[a]phenanthren-17-yl)-2-methylheptanoic acid]
Metabolite peak area percentages Rat Plasma Male ([1]; pooled male SD rat plasma 0.25-24 h after 10 mg/kg ENT-03S SC, relative XIC peak area): 91.29%
Metabolite peak area Rat Plasma Male ([1]; pooled male SD rat plasma after 10 mg/kg ENT-03S SC, XIC peak area): 6.03E+08
Metabolite peak area percentages Rat Urine Male ([1]; pooled male SD rat urine 0-24 h after 10 mg/kg ENT-03S SC, relative XIC peak area, “—”: not observed): 71.94%
Metabolite peak area Rat Urine Male ([1]; pooled male SD rat urine after 10 mg/kg ENT-03S SC, XIC peak area, “—”: not observed): 1.62E+06
local swelling, redness, and warmth [2, 6]: lasted for several days
pain on injection [2, 6]: severe pain within seconds that persisted for several hours
disappearance of swelling at injection site ([2]; 1 ml of Example 4 formulation (ENT-03S 50 mg/ml, 25% 2-hydroxypropyl β-cyclodextrin), abdominal area): Over the course of an hour, the swelling disappeared
sensation on subcutaneous injection ([2]; 1 ml of Example 4 formulation (ENT-03S 50 mg/ml, 25% 2-hydroxypropyl β-cyclodextrin, phosphate, pH 7.4-7.6), abdominal area): mild stinging sensation was noted, which disappeared within a few minutes
Concentration (ng/ml) Rat 1-3 ([3]; 0.25 h, individual rats, 10 mg/kg): 1150 ng/mL and 702 ng/mL and 1930 ng/mL
Concentration (ng/ml) Rat 1-3 ([3]; 0.5 h, individual rats, 10 mg/kg): 2300 ng/mL and 1490 ng/mL and 3220 ng/mL
Concentration (ng/ml) Rat 1-3 ([3]; 1 h, individual rats, 10 mg/kg): 4910 ng/mL and 2590 ng/mL and 5570 ng/mL
Concentration (ng/ml) Rat 1-3 ([3]; 2 h, individual rats, 10 mg/kg): 5900 ng/mL and 8620 ng/mL
Concentration (ng/ml) Rat 1-3 ([3]; 4 h, individual rats, 10 mg/kg): 10800 ng/mL and 16100 ng/mL
Concentration (ng/ml) Rat 1-3 ([3]; 8 h, individual rats, 10 mg/kg): 19600 ng/mL and 24800 ng/mL
Concentration (ng/ml) Rat 1-3 ([3]; 24 h, individual rats, 10 mg/kg): 40000 ng/mL and 54300 ng/mL
AUClast ([3]; individual rats, 10 mg/kg): 559.927 µg·h/mL and 749.498 µg·h/mL
AUClast/D ([3]; individual rats, 10 mg/kg): 67500 kg·ng·h/mL/mg and 56000 kg·ng·h/mL/mg and 75000 kg·ng·h/mL/mg
Cmax ([3]; individual rats, 10 mg/kg): 40 µg/mL and 54.3 µg/mL
AUClast/D Mean ([3]; mean): 66200 kg·ng·h/mL/mg
concentration at 0.25 h ([3]; male, Sprague-Dawley, rat, plasma, sc, 10 mg/kg, 0.25 h, mean): 1.26 µg/mL
concentration at 0.5 h ([3]; male, Sprague-Dawley, rat, plasma, sc, 10 mg/kg, 0.5 h, mean): 2.34 µg/mL
concentration at 1 h ([3]; male, Sprague-Dawley, rat, plasma, sc, 10 mg/kg, 1 h, mean): 4.36 µg/mL
concentration at 2 h ([3]; male, Sprague-Dawley, rat, plasma, sc, 10 mg/kg, 2 h, individual rats, read-out: Concentration (ng/ml) Rat 1-3): 8380 ng/mL
concentration at 2 h ([3]; male, Sprague-Dawley, rat, plasma, sc, 10 mg/kg, 2 h, mean, read-out: Concentration Mean): 7630 ng/mL
concentration at 4 h ([3]; male, Sprague-Dawley, rat, plasma, sc, 10 mg/kg, 4 h, individual rats, read-out: Concentration (ng/ml) Rat 1-3): 14100 ng/mL
concentration at 4 h ([3]; male, Sprague-Dawley, rat, plasma, sc, 10 mg/kg, 4 h, mean, read-out: Concentration Mean): 13700 ng/mL
concentration at 8 h ([3]; male, Sprague-Dawley, rat, plasma, sc, 10 mg/kg, 8 h, individual rats, read-out: Concentration (ng/ml) Rat 1-3): 26900 ng/mL
concentration at 8 h ([3]; male, Sprague-Dawley, rat, plasma, sc, 10 mg/kg, 8 h, mean, read-out: Concentration Mean): 23800 ng/mL
concentration at 24 h ([3]; male, Sprague-Dawley, rat, plasma, sc, 10 mg/kg, 24 h, individual rats, read-out: Concentration (ng/ml) Rat 1-3): 43300 ng/mL
concentration at 24 h ([3]; male, Sprague-Dawley, rat, plasma, sc, 10 mg/kg, 24 h, mean, read-out: Concentration Mean): 45900 ng/mL
Tmax ([3]; male, Sprague-Dawley, rat, plasma, sc, 10 mg/kg, individual rats): 24 h
AUC(0-t) ([3]; male, Sprague-Dawley, rat, plasma, sc, 10 mg/kg, individual rats, read-out: AUClast): 675 µg·h/mL
Cmax ([3]; male, Sprague-Dawley, rat, plasma, sc, 10 mg/kg, individual rats, read-out: Cmax): 43.3 µg/mL
AUC(0-t) ([3]; male, Sprague-Dawley, rat, plasma, sc, 10 mg/kg, mean, read-out: AUClast Mean): 662 µg·h/mL
Cmax ([3]; male, Sprague-Dawley, rat, plasma, sc, 10 mg/kg, mean, read-out: Cmax Mean): 45.9 µg/mL
Metabolite peak area Rat Bile [4]: 1.70E+07
Metabolite peak area percentages Rat Bile [4]: 13.77%
Concentration (ng/ml) Rat 1-3 ([5]; 0.25 h): 22000 ng/mL and 20800 ng/mL
Concentration (ng/ml) Rat 1-3 ([5]; 0.5 h): 27100 ng/mL and 30200 ng/mL
Concentration (ng/ml) Rat 1-3 ([5]; 1 h): 31700 ng/mL and 33000 ng/mL
Concentration (ng/ml) Rat 1-3 ([5]; 2 h): 32700 ng/mL and 33300 ng/mL

— US20260263485A1, “AMINOSTEROL COMPOUNDS, AMINOSTEROL-CYCLODEXTRIN FORMULATIONS, AND METHODS OF USING THE SAME” (Enterin, Inc., priority 2022, published 2026)
